Data on 5 compounds can be found in US20090030068A1, “Antitumour Compounds” (PHARMA MAR, S.A., priority 2005, published 2009).

The test system of one series is L1210 cells. The note with it: cited from earlier work.
The test system of the next series is HCT-8 cancer cells. To be noted: cited from earlier work.
In a further series the test system is MDA-MB-231 cancer cells. To be noted: cited from earlier work.
The test system of another series is P388 cancer cells. To be noted: cited from earlier work.
For another series, the system named is P388 leukemia. To be noted: cited from earlier work; for antitumor activity / toxicity: P388 leukemia in CDF1 mice.
A further series concerns A549 cancer cells. The note with it: cited from earlier work.
For the next series, the system named is KB cells. To be noted: cited from earlier work.
The test system of a further series is MDA-MB-231. Kind of series: SRB colorimetric cell growth inhibition assay, MDA-MB-231. Format: cell-based. Here is the method: (§1) The assays of antitumor activity allow detecting extracts or compounds with cytotoxic activity (cell death) or cytostatic activity (growth inhibition) in in vitro cultures of tumor cells of human origin.
(§2) The quantification of cell growth in vitro was carried out by means of a calorimetric assay with sulforhodamine B (SRB) (following an adaptation of the previously described method by Philip Skehan et al. 1990, J. Natl. Cancer Inst., 82:1107-1112).
(§3) This type of assay uses 96-well culture microplates, (Mosmann, 1983, Faircloth, 1988). Most of the cell lines used are obtained from the American Type Culture Collection (ATCC) and derived from different types of human tumors.
(§4) The cell cultures are maintained in DMEM culture medium (supplemented with 10% fetal bovine serum (FBS), 1% penicillin/streptomycin 1% glutamine) at 37° C., 5% CO2 and 98% humidity.
(§5) For the assays, the cells are trypsinized and seeded in 96-well microplates at different concentrations depending on the cell line, and are incubated for 24 hours in an active ingredient-free medium for their stabilization. The cultures are then treated (final concentration varies depending on the type of assay) with carrier (DMSO:DMEM, 1:1) or active ingredient. After 48 hours of exposure to the active ingredient, the antitumor effect is measured by means of the previously mentioned SRB method, which basically consists of: fixing the cells with a 1% glutaraldehyde solution (30 min, RT), washing of the fixer in PBS (3 washings, RT), staining the cultures with a 0.4% SRB solution (30 min, RT), washing of the colorant in 1% acetic acid solution (3 washings, RT), air-drying the plates and final extraction of the colorant with Tris buffer. The quantification of the assay is carried out by means of optical density reading of the plates in a spectrophotometric microplate reader at a single wavelength of 490 nm. […]

The next series relates to A549. In words: SRB colorimetric cell growth inhibition assay, A549. The series is classed as cell-based. Here is the method:
as §1, §2, §3, §4, §5

The subject of a further series is HT29. Kind of series: SRB colorimetric cell growth inhibition assay, HT29. The series is classed as cell-based. Here is the method: as §1, §2, §3, §4, §5

In brackets after ≈: the same amount, converted by molar mass.

Regarding `CO[C@H]1C[C@H](CC[C@H](C)[C@H](O)[C@H](C)[C@H]2OC(=O)/C(C)=C/C[C@H](O)C[C@@H]3C=CC[C@@H](C[C@H](OC)[C@@H](C)[C@@H](O)C[C@@H](O)[C@H](C)[C@@H]([C@@H](C)[C@@H](O)[C@@H](C)CC[C@H]4C[C@H](OC)C[C@H](C)O4)OC(=O)/C(C)=C/C[C@H](O)C[C@@H]4C=CC[C@@H](C[C@H](OC)[C@@H](C)[C@@H](O)C[C@@H](O)[C@@H]2C)O4)O3)O[C@@H](C)C1` [Misakinolide A], the “IC50 (cytotoxicity)” value in the series with L1210 cells is 0.035 µg/mL (≈ 0.0262 µM). Also, the “in vitro antitumor activity” value with HCT-8 cancer cells, in the series on MDA-MB-231 cancer cells, with P388 cancer cells and in the series with A549 cancer cells was “in vitro antitumor activity” each time. For the same compound, the T/C (in general, the ratio of treated to control) with P388 leukemia (dose of 0.1 mg/kg (mouse), P388 leukemia) was 140%.

In the case of `CO[C@H]1C[C@H](CC[C@H](C)[C@H](O)[C@H](C)[C@H]2OC(=O)/C=C/C(C)=C/C[C@H](O)C[C@@H]3C=CC[C@@H](C[C@H](OC)[C@@H](C)[C@@H](O)C[C@@H](O)[C@H](C)[C@@H]([C@@H](C)[C@@H](O)[C@@H](C)CC[C@H]4C[C@H](OC)C[C@H](C)O4)OC(=O)/C=C/C(C)=C/C[C@H](O)C[C@@H]4C=CC[C@@H](C[C@H](OC)[C@@H](C)[C@@H](O)C[C@@H](O)[C@@H]2C)O4)O3)O[C@@H](C)C1` [Swinholide A], in the series with L1210 cells, the “IC50 (cytotoxicity)” value is 0.03 µg/mL (≈ 0.0216 µM). Also, the “IC50 (cytotoxicity)” value with KB cells was 0.04 µg/mL (≈ 0.0288 µM). Besides, in the series with P388 leukemia, the antitumor activity entry is given as “did not show promising antitumor activity” and the toxicity result is “toxic”.

On to `COC1CC(C)OC(CCC(C)C(O)C(C)C2OC(=O)/C=C\C(C)=C\CC(O)CC3C=CCC(CC(OC)C(C)C(O)CC(O)C(C)C(C(C)C(O)C(C)CCC4CC(O)CC(C)O4)OC(=O)/C=C\C(C)=C\CC(O)CC4C=CCC(CC(OC)C(C)C(O)CC(O)C2C)O4)O3)C1` (stereo not shown) [Swinholide C], for which the figures for the “IC50 (cytotoxicity)” value in the series on L1210 cells and with KB cells were 0.14 µg/mL (≈ 0.102 µM) and 0.05 µg/mL (≈ 0.0363 µM), respectively.

Take `COC1CC(C)OC(CCC(C)C(O)C(C)C2OC(=O)/C=C/C(C)=C/CC(O)CC3C=CCC(CC(OC)C(C)C(O)CC(O)C(C)C(C(C)C(O)C(C)CCC4CC(OC)CC(C)O4)OC(=O)/C(C)=C/CC(O)CC4C=CCC(CC(OC)C(C)C(O)CC(O)C2C)O4)O3)C1` (stereo not shown) [Compound A]: the TGI in the series with MDA-MB-231 (Breast MDA-MB-231, 48 hours of exposure, concentration causing total growth inhibition) was 2.35E−6 Molar; with A549 (NSCL (Lung) A549, 48 hours of exposure, concentration causing total growth inhibition), 3.38E−7 Molar; in the series with HT29 (Colon HT29, 48 hours of exposure, concentration causing total growth inhibition), 8.81E−7 Molar. Besides, the CC50 in the series with MDA-MB-231 (Homo sapiens, MDA-MB-231, 48 h, read-out: LC50) was determined as 4770 nM; in the series with A549 (Homo sapiens, A549, 48 h, read-out: LC50), 529 nM. Besides, the GI50 – broadly, the concentration at which growth is held to half of that of the control – was found to be 808 nM in the series with MDA-MB-231 (Homo sapiens, Breast MDA-MB-231, 48 hours of exposure, concentration causing 50% growth inhibition); 228 nM in the series with A549 (Homo sapiens, NSCL (Lung) A549, 48 hours of exposure, concentration causing 50% growth inhibition); 338 nM with HT29 (Homo sapiens, HT-29, Colon HT29, 48 hours of exposure, concentration causing 50% growth inhibition). Besides, in the series with HT29 (Homo sapiens, HT-29, 48 h, read-out: LC50), the LC50 (concentration killing 50% of cells) worked out at 2200 nM.

On to isoswinholide A, for which the “IC50 (cytotoxicity)” value in the series with L1210 cells is 1.35 µg/mL. Further, the “IC50 (cytotoxicity)” value with KB cells was 1.1 µg/mL. In the series on P388 leukemia, the antitumor activity result was “did not show promising antitumor activity” and the toxicity entry is “toxic”.
